Assay results published in US12724034B2, “Tryptophan optical probe, preparation method therefor and use thereof” (priority 2020, dated 2026).

Columns and labels:
[1] = biological target: T1, Streptococcus pneumoniae tryptophan-binding protein 31ft (SEQ ID NO: 1) with cpYFP inserted at 263/265, optical sensor 31ft-263/265-cpYFP, SEQ ID NO: 6 (Streptococcus pneumoniae, UniProt A0A0H2UPV6, DELINS312-312[…]); details: for response to amino acid (specific detection): specificity, FIG. 7
T1 construct: His-tag; pCDF, E. coli JM109(DE3), nickel-column purified
Experimental: (§1) 3. The centrifuged supernatant was purified by a self-packed nickel-column affinity chromatography column to obtain the protein, and the protein after nickel-column affinity chromatography was then passed through a self-packed desalting column to obtain the protein dissolved in 100 mM HEPES buffer (pH 7.4).

[2] = biological target: T2, Streptococcus pneumoniae tryptophan-binding protein 31ft (SEQ ID NO: 1) with cpYFP inserted at 263/266, optical sensor 31ft-263/266-cpYFP, SEQ ID NO: 7 (Streptococcus pneumoniae, UniProt A0A0H2UPV6, DELINS312-313[…]); details: for response to amino acid (specific detection): specificity, FIG. 7
T2 construct: His-tag; E. coli JM109(DE3), nickel-purified
Experimental: as §1

[3] = biological target: T3, Streptococcus pneumoniae tryptophan-binding protein 31ft (SEQ ID NO: 1) with cpYFP inserted at 263/266, SEQ ID NO: 7 (Streptococcus pneumoniae, UniProt A0A0H2UPV6, DELINS312-313[…]); assay: Tryptophan response screening, disrupted supernatant, cpYFP 263/266; assay type: biochemical; details: 1 mM tryptophan, disrupted supernatant of E. coli
T3 construct: His-tag; E. coli JM109(DE3), disrupted supernatant
Experimental: (§2) Tryptophan response screening was performed with disrupted supernatants of E. coli expressing the 31ft-cpYFP fusion protein, and the detection signal of the fusion fluorescent protein containing 1 mM tryptophan was divided by the detection signal of the fusion fluorescent protein without tryptophan.

[4] = biological target: T4, Streptococcus pneumoniae tryptophan-binding protein 31ft (SEQ ID NO: 1) with cpGFP (SEQ ID NO: 3) inserted at 263/266 (Streptococcus pneumoniae, UniProt A0A0H2UPV6, DEL312-313); assay: Tryptophan response screening, disrupted supernatant, cpGFP 263/266; assay type: biochemical; details: method of Example 2 (1 mM tryptophan)
T4 construct: E. coli disrupted supernatant
Experimental: as §2
(§3) According to the method in Example 2, cpYFP was replaced with cpGFP to construct a tryptophan green fluorescent protein fluorescent sensor.

[5] = biological target: T5, Streptococcus pneumoniae tryptophan-binding protein 31ft (SEQ ID NO: 1) with cpYFP inserted at 263/267, SEQ ID NO: 8 (Streptococcus pneumoniae, UniProt A0A0H2UPV6, DELINS312-314[…]); assay: Tryptophan response screening, disrupted supernatant, cpYFP 263/267; assay type: biochemical; details: 1 mM tryptophan, disrupted supernatant of E. coli
T5 construct: His-tag; E. coli JM109(DE3), disrupted supernatant
Experimental: as §2

HeLa cells = assay: Dynamic monitoring of tryptophan transmembrane transport in HeLa cells expressing the optical sensor in the cytosol; assay type: cell-based; details: 1 mM tryptophan, 30 min, HBSS
Experimental: 1. The pCDNA3.1+-based tryptophan optical sensor plasmid was transfected into HeLa by the transfection reagent Lipofectamine2000 (Invitrogen), and cultured in a cell incubator at 37° C., 5% CO2. Fluorescence detection was performed 24-36 h after the exogenous gene was fully expressed.
2. After induction of expression, adherent HeLa cells were washed three times with PBS and placed in HMS solution for fluorescence microscopy and microplate reader assays, respectively.
Add 1 mM tryptophan and continue the assay for 30 minutes.

[6] = biological target: T6, Streptococcus pneumoniae tryptophan-binding protein 31ft (SEQ ID NO: 1) with cpYFP inserted at 263/268, optical sensor 31ft-263/268-cpYFP, SEQ ID NO: 9 (Streptococcus pneumoniae, UniProt A0A0H2UPV6, DELINS312-315[…]); assay: Titration and specificity detection, purified sensor 31ft-263/268-cpYFP; details: 420/485 fluorescence ratio, concentration gradient tryptophan
T6 construct: His-tag; E. coli JM109(DE3), nickel-purified
Experimental: as §1

[7] = biological target: T7, Streptococcus pneumoniae tryptophan-binding protein 31ft (SEQ ID NO: 1) with cpGFP (SEQ ID NO: 3) inserted at 263/267 (Streptococcus pneumoniae, UniProt A0A0H2UPV6, DEL312-314); assay: Tryptophan response screening, disrupted supernatant, cpGFP 263/267; assay type: biochemical; details: method of Example 2 (1 mM tryptophan)
T7 construct: E. coli disrupted supernatant
Experimental: as §2, §3

[8] = biological target: T8, Streptococcus pneumoniae tryptophan-binding protein 31ft (SEQ ID NO: 1) with cpYFP inserted at 263/267, optical sensor 31ft-263/267-cpYFP, SEQ ID NO: 8 (Streptococcus pneumoniae, UniProt A0A0H2UPV6, DELINS312-314[…]); assay: Titration and specificity detection, purified sensor 31ft-263/267-cpYFP; details: 420/485 fluorescence ratio, concentration gradient tryptophan
T8 construct: His-tag; E. coli JM109(DE3), nickel-purified
Experimental: as §1

[9] = biological target: tryptophan optical sensor (Streptococcus pneumoniae tryptophan-binding protein 31ft fusion) (Streptococcus pneumoniae, UniProt A0A0H2UPV6); assay: Highest response of the tryptophan optical sensor provided in this application; assay type: biochemical
[10] = biological target: T9, Streptococcus pneumoniae tryptophan-binding protein 31ft (SEQ ID NO: 1) with cpYFP inserted at 263/265, SEQ ID NO: 6 (Streptococcus pneumoniae, UniProt A0A0H2UPV6, DELINS312-312[…]); assay: Tryptophan response screening, disrupted supernatant, cpYFP 263/265; assay type: biochemical; details: 1 mM tryptophan, disrupted supernatant of E. coli
T9 construct: His-tag; pCDF, E. coli JM109(DE3) disrupted supernatant
Experimental: as §2

[11] = biological target: T10, Streptococcus pneumoniae tryptophan-binding protein 31ft (SEQ ID NO: 1) with cpYFP inserted at 263/268, SEQ ID NO: 9 (Streptococcus pneumoniae, UniProt A0A0H2UPV6, DELINS312-315[…]); assay: Tryptophan response screening, disrupted supernatant, cpYFP 263/268; assay type: biochemical; details: 1 mM tryptophan, disrupted supernatant of E. coli
T10 construct: His-tag; E. coli JM109(DE3), disrupted supernatant
Experimental: as §2

[12] = tested on: Streptococcus pneumoniae 31ft-cpYFP optical sensor mutants L84F, F202W, K214F, K214W, Y217F, Y217W, K255F, K255W, T259F, T259W, I283F and I283W; assay: Fluorescence detection of purified mutated cpYFP optical sensors; assay type: biochemical; details: purified proteins; FIG. 8
Experimental: The plasmids pCDF-31ft-263/265-cpYFP, pCDF-31ft-263/266-cpYFP, pCDF-31ft-263/267-cpYFP were linearized by PCR with the primers containing the base sequence of the desired mutation site.
Phosphorus was added to the obtained PCR products under the action of PNK, T4 DNA ligase and PEG4000, thereby obtaining mutant plasmids of 15 sites of H13, T71, L84, D93, K105, N117, T130, V170, V192, F202, K214, Y217, K255, T259, 1283, and the sequencing was completed by Jie Li Sequencing Company. An exemplary nucleic acid sequence is set forth in SEQ ID NO:40 (263/266-T259F).

[13] = biological target: T11, Streptococcus pneumoniae tryptophan-binding protein 31ft with cpYFP inserted at 263/266, mutant T259F, optical sensor 31ft-263/266-cpYFP-T259F, SEQ ID NO: 31 (Streptococcus pneumoniae, UniProt A0A0H2UPV6, DELINS312-313[…]/T307F); assay: Fluorescence spectra and tryptophan response of purified 31ft-263/266-cpYFP-T259F; assay type: biochemical
T11 construct: His-tag; E. coli, purified
Experimental: 6. […] The determination of the absorption spectrum and fluorescence spectrum of the sample is completed by a spectrophotometer and a fluorescence spectrophotometer.
Detection of fluorescence spectra was performed using a fluorescence spectrophotometer after subjecting purified tryptophan optical sensor 31ft-263/266-cpYFP-T259F to 0 mM and 1 mM tryptophan treatments for 10 min, respectively.
Determination of emission spectra: excitation spectra were recorded with an fixed excitation wavelength of 420 nm and 485 nm and an emission range of 470-600 nm and 490-600 nm, read every 5 nm.

[14] = biological target: T12, Streptococcus pneumoniae tryptophan-binding protein 31ft (SEQ ID NO: 1) with cpGFP (SEQ ID NO: 3) inserted at 263/268 (Streptococcus pneumoniae, UniProt A0A0H2UPV6, DEL312-315); assay: Tryptophan response screening, disrupted supernatant, cpGFP 263/268; assay type: biochemical; details: method of Example 2 (1 mM tryptophan)
T12 construct: E. coli disrupted supernatant
Experimental: as §2, §3

[15] = biological target: T13, Streptococcus pneumoniae tryptophan-binding protein 31ft (SEQ ID NO: 1) with cpGFP (SEQ ID NO: 3) inserted at 263/265 (Streptococcus pneumoniae, UniProt A0A0H2UPV6, DEL312-312); assay: Tryptophan response screening, disrupted supernatant, cpGFP 263/265; assay type: biochemical; details: method of Example 2 (1 mM tryptophan)
T13 construct: E. coli disrupted supernatant
Experimental: as §2, §3

[16] = 420/485 fluorescence ratio, concentration gradient tryptophan

N[C@@H](Cc1ccccc1)C(=O)O [phenylalanine]
response to amino acid (specific detection) [1]: 1.37 times
response to amino acid (specific detection) [2]: 1.34 times

N[C@@H](Cc1c[nH]c2ccccc12)C(=O)O [tryptophan, L-tryptophan]
response to tryptophan (signal with / without tryptophan) [3]: more than 1.5 times
response to tryptophan [4]: more than 1.5 times
response to tryptophan (signal with / without tryptophan) [5]: more than 1.5 times
highest 485/420 ratio relative to the initial value (HeLa cells): 1.3 times
change amplitude [6]: 3.0 times
response to tryptophan [7]: more than 1.5 times
change amplitude [1, 16]: 4.2 times
change amplitude [2, 16]: 5.3 times
change amplitude [8]: 3.3 times
highest response to tryptophan, increase of the control [9]: more than 9 fold
response to tryptophan (signal with / without tryptophan) [10]: more than 1.5 times
response to tryptophan (signal with / without tryptophan) [11]: more than 1.5 times
response to tryptophan [12]: more than 2.5 times
decrease in fluorescence intensity under excitation at 460 nm, compared to 0 mM tryptophan ([13]; 1 mM tryptophan, 10 min): 0.26 fold
fluorescence intensity excited at 420 nm, relative to 0 mM tryptophan ([13]; 1 mM tryptophan, 10 min): 1.1 times
response to tryptophan ([13]; purified protein): more than 2.5 fold
response to tryptophan [14]: more than 1.5 times
response to tryptophan [15]: more than 1.5 times

N[C@@H](Cc1ccc(O)cc1)C(=O)O [tyrosine]
response to amino acid (specific detection) [1]: 1.25 times
response to amino acid (specific detection) [2]: 1.26 times
